Results published in patent publication EP4166560A1, “TRI-SUBSTITUTED TETRAHYDROFURANS AND USE THEREOF” (Consejo Superior de Investigaciones Cientificas, priority 2021, dated 2023).
Several values for one entry are separate records, joined by “and”; a condition that tells them apart may be missing. Equal entries are not always repeated. Entries after “also recorded” stand apart in the source; their conditions may differ. Numbered stars: 1 amine (or outer) side, 2 acyl side, 3 side chain; on linkers, the order of the positions; unused ones are H or OH. Bridge positions count the residues as written; N and C are the ends. Square brackets hold non-standard residues; d marks the D form. Peptide text beside a SMILES is read from it. * marks the point of attachment. X1 = CC[C@H](C)[C@@H](N[*:1])[C@@H](O)CC(=O)O[C@H](C(=O)[C@H](C)C(=O)[*:2])C(C)C; NMeY = CN[C@@H](Cc1ccc(O)cc1)C(=O)O; dNMeL = CN[C@H](CC(C)C)C(=O)O; Pyruvoyl = CC(=O)C(=O)*

Tests used:
[1] = system: SARS-CoV-2; settings: White et al. 2021; result in words; cited from earlier work
[2] = in vitro; settings: human, a549 cells
[3] = system: SARS-CoV-2; test: SARS-CoV-2 infection quantified by immunofluorescence (flow cytometry) in A549 cells; assay type: cell-based
Protocol: The activity of SPL-0 against SARS-CoV-2 was determined in A549 human lung cells, which provide a biologically relevant model, since that lungs are a primary target of SARS-CoV-2. For this, a dose-response assay was performed in the range of 0.2 µM to 50 µM. Cell cultures were inoculated with SARS-CoV-2 at an MOI of 0.01 infectious particles per cell and analyzed after 72 h. The percentage of infected cells was obtained by flow cytometry using a monoclonal antibody against the virus spike protein S as well as a fluorescently labelled secondary antibody (immunofluorescence). The percentage of infected cells decreased as the SPL-0 increased (Figure 9a). […] In addition, for each dose, cell viability assays were performed in the absence of virus. For this, the MTT assay was used.

[4] = system: SARS-CoV-2; test: SARS-CoV-2 infection quantified by immunofluorescence (flow cytometry) in VeroE6 cells; assay type: cell-based
Protocol: To determine the activity of SPL-0 against SARS-CoV-2, a dose-response assay was performed in the range of 0.2 µM to 50 µM using VeroE6 kidney cells from African green monkey (Cercopithecus aethiops). Cell cultures were inoculated with SARS-CoV-2 at an MOI of 0.01 infectious particles per cell and analyzed after 48 h. The percentage of infected cells was obtained by flow cytometry using a monoclonal antibody against the virus spike protein S as well as a fluorescently labelled secondary antibody (immunofluorescence). The percentage of infected cells decreased as the SPL-0 increased (Figure 8a). […] In addition, for each dose, cell viability assays were performed in the absence of virus. For this, the MTT assay, a standard procedure for determining cell metabolic activity, was used.

[5] = system: TGEV; test: TGEV viral titration by plaque assay in ST cells; assay type: cell-based, transmissible gastroenteritis virus (TGEV)
Protocol: ST cells were inoculated with TGEV at a MOI of 0.01 infectious particles per cell and, after 24 h of incubation under standard culture conditions, the culture medium was subjected to the plaque assay, which determines the number of viral infectious particles present per volume unit (viral titer). A range of SPL-0 concentrations was tested in order to obtain a dose-response curve. The TGEV titer in the harvested medium decreased as the SPL-0 dose increased (Figure 6).

[6] = system: OC43; test: OC43 RNA quantitation by RT-qPCR in BHK-21 cells; assay type: cell-based, human coronavirus OC43
[7] = system: TGEV; test: Quantitation of TGEV-induced cell death in ST cells by real-time automated microscopy (Cytotox); assay type: cell-based, transmissible gastroenteritis virus (TGEV); settings: for EC50: read-out: EC50 on TGEV-induced cell death; for activity against TGEV (reversion of TGEV-induced cell death): MOI 0.01, 48 h, result in words; for bottom plateau, dead cells: TGEV MOI 0.01, 48 h, dose-response fit
[8] = system: TGEV; test: TGEV RNA quantitation by RT-qPCR in ST cells; assay type: cell-based, transmissible gastroenteritis virus (TGEV)
Protocol: ST cells were inoculated with TGEV at a MOI of 0.01 infectious particles per cell and, after 24 h of incubation under standard culture conditions, total RNA was extracted and TGEV RNA was quantified by RT-qPCR. A range of SPL-0 concentrations was tested in order to obtain a dose-response curve. The amount of TGEV RNA decreased as the SPL-0 dose increased (Figure 7).

[9] = in vitro; settings: pig, st cells
[10] = system: CVB3; test: CVB3 viral titration by plaque assay in HeLa cells; assay type: cell-based, coxsackievirus B3 (CVB3)
Protocol: CVB3 belongs to the picornavirus family. […] Coronaviruses and picornaviruses share certain broad features. Both are plus-strand RNA viruses. However, they are otherwise largely unrelated virus groups. The effect of SPL-0 on CVB3 infection was determined in human HeLa cells. HeLa cells were inoculated with CVB3 at a MOI of 0.01 infectious particles per cell and, after 24 h of incubation under standard culture conditions, the medium was subjected to the plaque assay, which determines the number of viral infectious particles present per volume unit (viral titer). A range of SPL-0 concentrations was to obtain a dose-response curve. The CVB3 titer in the harvested medium decreased as the SPL-0 dose increased (Figure 10). […] Therefore, the antiviral action of SPL-0 extends beyond coronaviruses.

[11] = system: swine testis (ST) cells; settings: dose range 2-100 µM
[12] = system: A549 human lung cells; settings: MTT, 0.2 µM to 50 µM
[13] = in vitro; settings: african green monkey, veroe6 cells
[14] = system: VeroE6 kidney cells; settings: MTT, 0.2 µM to 50 µM
[15] = system: MHV; test: MHV RNA quantitation by RT-qPCR in CCL9.1 cells; assay type: cell-based, murine hepatitis virus (MHV)
[16] = relative to untreated control, dose-response fit
[17] = Alphacoronavirus 1, ST cells, MOI 0.01, 48 h after viral inoculation

SMILES: CC[C@H](C)[C@H]1NC(=O)[C@@H](NC(=O)[C@@H](CC(C)C)N(C)C(=O)[C@@H]2CCCN2C(=O)C(C)=O)[C@@H](C)OC(=O)[C@H](Cc2ccc(OC)cc2)N(C)C(=O)[C@@H]2CCCN2C(=O)[C@H](CC(C)C)NC(=O)[C@@H](C)C(=O)[C@H](C(C)C)OC(=O)C[C@@H]1O [Aplidin, plitidepsin] (Pyruvoyl-P[dNMeL]T[X1]LP[NMeY](Me); ester 3-C)
- in vitro activity against SARS-CoV-2 [1]: potent in vitro activity

SMILES: C[C@@H]1O[C@@H](Cc2ccccc2)CC1[Si](c1ccccc1)(c1ccccc1)c1ccccc1 (some centres unmarked) [SPL-0]
- CC50 at 48 h [2]: > 50 µM
- estimated bottom plateau, infected cells ([3]; A549 cells, dose-response fit): -0.37%
- EC50 ([3]; Severe acute respiratory syndrome coronavirus 2, A549, immunofluorescence, MOI 0.01, 72 h, read-out: EC50 against SARS-CoV-2 in A549 cells): 12.9 µM
- EC50 ([4]; Severe acute respiratory syndrome coronavirus 2, Vero C1008, immunofluorescence, MOI 0.01, 48 h, read-out: EC50 against SARS-CoV-2 in VeroE6 cells): 27.5 µM
- bottom plateau, infected cells ([4]; VeroE6 cells, dose-response fit): 1.6%
- EC50 ([5]; Alphacoronavirus 1, viral titration (plaque assay), ST cells, MOI 0.01, 24 h, read-out: EC50 against TGEV): 15.6 µM
- bottom plateau, estimated viral titer [5, 16]: 0%
- amount of OC43 RNA, % of the amount obtained in control cultures receiving no drug ([6]; 20 µM, MOI 0.01, 4 days): 4.16 ± 0.95%
- EC50 ([6]; Betacoronavirus 1, OC43, RT-qPCR, inferred from single dose 20 µM, read-out: EC50 against OC43): < 20 µM
- EC50 ([7]; Alphacoronavirus 1, 48 h): 13.1 µM
- activity against TGEV (reversion of TGEV-induced cell death) ([7]; ST cells): partially reverts TGEV-induced cell death; also recorded: Active
- bottom plateau, dead cells ([7]; ST cells): 16.1%
- EC50 ([8]; Alphacoronavirus 1, RT-qPCR, ST cells, MOI 0.01, 24 h, read-out: EC50 against TGEV): 4.35 µM
- bottom plateau, viral RNA [8, 16]: 0%
- CC50 at 48 h [9]: > 100 µM
- EC50 ([10]; Enterovirus B, CVB3, viral titration (plaque assay), HeLa cells, MOI 0.01, 24 h, read-out: EC50 against CVB3): 2.95 µM
- bottom plateau, estimated viral titer [10, 16]: 0%
- percentage of dead cells at 48 h ([11]; ST cell cultures not inoculated with TGEV): < 12% and 2.5-12.0%
- cytotoxic effects ([11]; ST cells, no virus, result in words): no detectable cytotoxic effects
- cytotoxic effects ([12]; A549 cells, result in words): no cytotoxic effects
- percentage of viable cells at 48 h ([12]; uninfected A549 cells): > 89% and 89.0-100%
- CC50 at 48 h [13]: > 50 µM
- percentage of viable cells at 48 h ([14]; uninfected VeroE6 cells): > 85% and 85.0-93.3%
- cytotoxic effects ([14]; VeroE6 cells, result in words): no cytotoxic effects
- amount of MHV RNA, % of the amount obtained in control cultures receiving no drug ([15]; 20 µM, MOI 0.01, 24 h): 17.0 ± 2.4%
- EC50 ([15]; Murine coronavirus, RT-qPCR, inferred from single dose 20 µM, read-out: EC50 against MHV): < 20 µM

SMILES: CCCCCCCCCC[C@H]1CC([Si](c2ccccc2)(c2ccccc2)c2ccccc2)[C@H](C)O1 (stereo partly drawn) [SPL-1, 2,5-trans-(5-decyl-2-methyltetrahydrofuran-3-yl)triphenylsilane]
- activity against TGEV (reversion of TGEV-induced cell death) ([7]; ST cells): did not revert TGEV-induced cell death; also recorded: Inactive

SMILES: C[C@H]1OC[C@@H](c2ccccc2)[C@H]1[Si](c1ccccc1)(c1ccccc1)c1ccccc1 [SPL-4]
- EC50 [7, 17]: 15.8 µM
- activity against TGEV (reversion of TGEV-induced cell death) ([7]; ST cells): partially reverts TGEV-induced cell death; also recorded: Active
- bottom plateau, dead cells ([7]; ST cells): 11.4%

SMILES: C[C@@H]1O[C@@H](Cc2ccccc2)CC1[Si](C)(C)C (some centres unmarked) [SPL-5]
- activity against TGEV (reversion of TGEV-induced cell death) ([7]; ST cells): did not revert TGEV-induced cell death; also recorded: Inactive

SMILES: CC(C)C[C@H]1C[C@@H]([Si](c2ccccc2)(c2ccccc2)c2ccccc2)[C@H](CCCCl)O1 [SPL-6]
- EC50 [7, 17]: 30.5 µM
- activity against TGEV (reversion of TGEV-induced cell death) ([7]; ST cells): partially reverts TGEV-induced cell death; also recorded: Active
- bottom plateau, dead cells ([7]; ST cells): 14.8%
